From patent US11827624B2, “Covalent immune recruiter compounds for immune cell recognition and associated uses” (McMaster University, priority 2020, dated 2023)

System: PSMA+HEK cells
Assay: Two-color flow cytometry ADCP (CD64) assay with mAb on PSMA+HEK cells
Format: cell-based, human
Source text: ADCP flow cytometry experiments were run on a BD LSRII Flow Cytometer. The human IgG isotype control used was purchased from Jackson ImmunoResearch (009-000-003). The human IgG1 monoclonal anti-DNP antibody (mAb) was purchased from acrobiosystems (DNP-M2). PSMA expression was confirmed with an anti-PSMA antibody Alexa 647 conjugate (Novus Biologicals, Catalog #FAB4234R). For PSMA competition controls, PMPA was purchased from Sigma (SML1612). Hek-293T (PSMA+/−) cell lines were generously given by Dr. Cyril Barinka (Institute of Biotechnology CAS, Czech Republic). U937 cells were generously given by Dr. John Valliant (McMaster University, Canada). LNCaP cells were generously given by Dr. Karen Mossman (McMaster University, Canada). IFN-γ was purchased from Fischer Scientific (PHC4031). Ultra low IgG FBS was purchased from Fischer Scientific (A3381901). RPMI-1640 was purchased as a powder from Fischer Scientific (31800089) and resuspended. DMEM was purchased as a powder from Fischer Scientific (12800082) and resuspended. […]
For preparation of effector monocytes, 24 hours prior to inducing phagocytosis U937 monocytes were seeded at 500,000 cells/mL and activated with IFN-γ ([…]). After incubation, these cells were then counted and washed twice with serum free assay media (neat RPMI). […] These cells were then counted and washed twice with serum free assay media (neat RPMI). […]

O=C(O)CC[C@H](NC(=O)N[C@@H](CCCCNC(=O)NCCOCCOCCOCCOCCOCCOCCOCCOC(=O)n1cnc(CCNC(=O)CNc2ccc([N+](=O)[O-])cc2[N+](=O)[O-])c1)C(=O)O)C(=O)O [CIR 3]
CD64 based target immune recognition (phagocytosis): substantial functional enhancement relative to ARM 11 across all antibody concentrations tested
